As usually defined, the Km is the concentration of substrate that gives half-maximal velocity.

Data set [1] addresses T1, S. Cerevisiae Oligosaccharyl Transferase (Saccharomyces cerevisiae, UniProt P39007).
T1 construct: a solubilized preparation of the yeast enzyme oligosaccharyl transferase; endogenous in cells; host or cells: Saccharomyces cerevisiae (crude, Triton-solubilized enzyme preparation)
The experiment in a line: Inhibition kinetics (competitive inhibition) with solubilized yeast oligosaccharyl transferase; glycopeptide production from Dol-P-P-GlcNAc-[3H]-GlcNAc and Bz-Asn-Leu-Thr-NHMe. Conditions: 37.5 μM Bz-Asn-Leu-Thr-NHMe, control rate 701 dpm min^-1. The data set is classed as biochemical.

Substrate in data set [2]: CNC(=O)[C@@H](NC(=O)[C@H](CC(C)C)NC(=O)[C@H](CC(N)=O)NC(=O)c1ccccc1)[C@@H](C)O
The description is as above. The note with it: other: competing substrate of OT, used in the Ki equation; pH 7.5. The data set is classed as biochemical, S. Cerevisiae.

Starred links: 1 amine or outer side, 2 acyl side, 3 side chain; linkers in the order of their positions; H or OH if unused. Positions of bridges follow the written chain, without caps; N, C: chain ends. Non-standard residues stand in square brackets, D forms with d. Residues, ends and D or L forms follow the SMILES beside them. Phe(4-NO2) = N[C@@H](Cc1ccc([N+](=O)[O-])cc1)C(=O)O; X1 = O=C(CCCCC[*:2])[*:1]; Dab = NCC[C@H](N)C(=O)O

As for `CC(C)[C@H](NC(=O)[C@@H](NC(=O)[C@@H]1CSCCCCCC(=O)N[C@@H](CCN)C(=O)N1)[C@@H](C)O)C(=O)N[C@H](C(=O)N[C@@H](Cc1ccc([N+](=O)[O-])cc1)C(N)=O)[C@@H](C)O` [Compound 2, Cyclo(Amb-Cys)-Thr-Val-Thr-Nph] ([Dab]CTVT[Phe(4-NO2)]-NH2; linker N-2 via X1), the “rate of glycopeptide production” value in data set [1] (10 nM solution of 2) is recorded as 572 dpm min^-1; in data set [1] (100 nM solution of 2) it was 296 dpm min^-1.

B1: S. Cerevisiae Oligosaccharyl Transferase (Saccharomyces cerevisiae S288C) (protein)
chain: MGSDRSCVLSVFQTILKLVIFVAIFGAAISSRLFAVIKFESIIHEFDPWFNYRATKYLVNNSFYKFLNWFDDRTWYPLGRVTGGTLYPGLMTTSAFIWHALRNWLGLPIDIRNVCVLFAPLFSGVTAWATYEFTKEIKDASAGLLAAGFIAIVPGYISRSVAGSYDNEAIAITLLMVTFMFWIKAQKTGSIMHATCAALFYFYMVSAWGGYVFITNLIPLHVFLLILMGRYSSKLYSAYTTWYAIGTVASMQIPFVGFLPIRSNDHMAALGVFGLIQIVAFGDFVKGQISTAKFKVIMMVSLFLILVLGVVGLSALTYMGLIAPWTGRFYSLWDTNYAKIHIPIIASVSEHQPVSWPAFFFDTHFLIWLFPAGVFLLFLDLKDEHVFVIAYSVLCSYFAGVMVRLMLTLTPVICVSAAVALSKIFDIYLDFKTSDRKYAIKPAALLAKLIVSGSFIFYLYLFVFHSTWVTRTAYSSPSVVLPSQTPDGKLALIDDFREAYYWLRMNSDEDSKVAAWWDYGYQIGGMADRTTLVDNNTWNNTHIAIVGKAMASPEEKSYEILKEHDVDYVLVIFGGLIGFGGDDINKFLWMIRISEGIWPEEIKERDFYTAEGEYRVDARASETMRNSLLYKMSYKDFPQLFNGGQATDRVRQQMITPLDVPPLDYFDEVFTSENWMVRIYQLKKDDAQGRTLRDVGELTRSSTKTRRSIKRPELGLRV
notes: a solubilized preparation of the yeast enzyme oligosaccharyl transferase; endogenous in cells; host or cells: Saccharomyces cerevisiae (crude, Triton-solubilized enzyme preparation)
As for B1, in data set [2], the Km came out at 25 µM.

The values are drawn from US5721338A, “Inhibitors of oligosaccharyl transferase” (California Institute of Technology, priority 1995, dated 1998).
